According to patent US7947275B2 (Signe Biopharma, Inc., priority 2000, dated 2011):
pIC50, pKd: −log10 of the molar value. “And” between values parts separate entries of the source, which are not always exact repeats. Equal values may be shown once. Read-outs that look alike come from different tables or passages of the source.

Assays:
MCF-7K cells = assay: Cell growth assay, MCF-7K human breast cancer cells
[1] = system: CA-PS-Pool II from rat serum; assay: Scatchard analysis of labeled steroid binding to the SHBG-like pools from rat serum; conditions: 3H-labeled steroid
[2] = target: T1, CA-PS-Pool I (predominantly CBG) (Equus caballus, UniProt F7DRS2); assay: Scatchard analysis of labeled steroid binding to CA-PS-pool I; design: species or system horse
T1 sequence (F7DRS2 23-406): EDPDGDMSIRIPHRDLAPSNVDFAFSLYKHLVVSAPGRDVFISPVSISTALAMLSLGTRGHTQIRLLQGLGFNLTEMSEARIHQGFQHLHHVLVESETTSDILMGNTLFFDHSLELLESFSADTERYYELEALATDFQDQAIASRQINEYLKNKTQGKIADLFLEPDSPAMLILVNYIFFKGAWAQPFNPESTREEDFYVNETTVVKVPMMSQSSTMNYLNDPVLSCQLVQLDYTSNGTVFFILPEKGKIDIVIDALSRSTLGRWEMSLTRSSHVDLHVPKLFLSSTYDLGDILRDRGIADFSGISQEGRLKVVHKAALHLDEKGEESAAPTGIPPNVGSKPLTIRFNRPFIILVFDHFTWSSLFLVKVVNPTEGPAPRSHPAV

[3] = system: progesterone receptors of T47D cells; assay: Induction of progesterone receptors in T47D cells; assay type: cell-based, human; conditions: four days, phenol red free medium
ZR-75-1 cells = assay: Cell growth assay, ZR-75-1 human breast cancer cells; conditions: serum-free defined DDM-2MF
human SHBG = human SHBG (Homo sapiens, UniProt P04278); conditions: 37° C.; cited from earlier work
Sequence of human SHBG (P04278 30-402): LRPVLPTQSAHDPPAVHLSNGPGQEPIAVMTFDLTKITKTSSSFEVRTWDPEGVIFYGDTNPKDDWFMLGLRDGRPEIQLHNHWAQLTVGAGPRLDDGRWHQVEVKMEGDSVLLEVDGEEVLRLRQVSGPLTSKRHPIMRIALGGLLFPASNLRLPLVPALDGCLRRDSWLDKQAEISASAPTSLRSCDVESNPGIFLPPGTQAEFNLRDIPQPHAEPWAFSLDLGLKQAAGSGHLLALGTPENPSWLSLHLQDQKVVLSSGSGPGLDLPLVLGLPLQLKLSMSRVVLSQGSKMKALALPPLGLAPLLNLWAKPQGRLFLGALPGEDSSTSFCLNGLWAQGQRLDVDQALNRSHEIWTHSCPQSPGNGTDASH

GH4C1 cells = assay: Cell growth assay, GH4C1 rat pituitary tumor cells; conditions: for growth effect of steroid hormone, result in words: 50% CDE-horse serum
[4] = not given; remark: listed apart in the source
ERβ = conditions: Transfection Studies, ERβ only; cited from earlier work
LNCaP cells = assay: Cell growth assay, LNCaP human prostatic carcinoma cells; assay type: cell-based; conditions: for reversal of the inhibition caused by CDE-horse serum: D-MEM/F-12 with CDE-horse serum, 10 nM steroid
Description: Specific modifications of the customary cell growth assays were required for assays done under iron-restricted conditions. […] Serum-free components were added to “low-Fe” D-MEM/F-12 at double the concentrations needed (2X) or to “standard” D-MEM/F-12 at (2X) as the experiments dictated. Each assay dish received 1.0 mL of this solution. Next, the cells to be used in the assays were washed three times in either “low-Fe” medium or “standard” medium depending upon the experimental protocol.

[5] = system: progesterone receptors of MTW9/PL2 cells; assay: Estrogen induction of progesterone receptors in MTW9/PL2 cells; assay type: cell-based, rat; conditions: 1.0×10^−8 M E2, within two days; two experiments
Description: All results were normalized to “receptors per cell” to correct for growth over the duration of the experiment.

[6] = target: estrogen receptor of H301 cells (Mesocricetus auratus, UniProt Q9QZJ5); conditions: cited from earlier work
Sequence of estrogen receptor of H301 cells (Q9QZJ5 whole entry): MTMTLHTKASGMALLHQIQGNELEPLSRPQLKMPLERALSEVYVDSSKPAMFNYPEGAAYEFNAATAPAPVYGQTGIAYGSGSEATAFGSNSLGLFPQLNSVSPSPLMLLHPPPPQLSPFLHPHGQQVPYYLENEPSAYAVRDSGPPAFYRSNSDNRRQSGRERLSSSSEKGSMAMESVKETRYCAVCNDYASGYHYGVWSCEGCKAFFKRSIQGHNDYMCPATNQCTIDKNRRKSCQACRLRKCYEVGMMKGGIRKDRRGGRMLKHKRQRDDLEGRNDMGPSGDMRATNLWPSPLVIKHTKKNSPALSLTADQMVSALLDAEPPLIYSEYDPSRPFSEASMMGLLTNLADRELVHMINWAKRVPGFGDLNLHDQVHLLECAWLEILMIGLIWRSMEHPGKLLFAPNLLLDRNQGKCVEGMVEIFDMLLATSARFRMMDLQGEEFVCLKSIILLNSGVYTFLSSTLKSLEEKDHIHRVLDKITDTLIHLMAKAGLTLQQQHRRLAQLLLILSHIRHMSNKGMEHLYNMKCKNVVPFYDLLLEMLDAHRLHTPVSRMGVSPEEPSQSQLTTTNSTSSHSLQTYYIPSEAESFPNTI

[7] = system: MCF-7A, T47D and MTW9/PL2 cells; assay: Direct test of phenol red versus E2 as mitogen with three ER^+ cell lines; assay type: cell-based; conditions: phenol red free D-MEM/F-12 with 30% CDE-HS
Description: Direct Test of Phenol Red Estrogenic Activity. Three cell lines were selected for a direct test of phenol red as a mitogen. […] This concentration was chosen even though it is not as inhibitory as 50% (v/v) serum. This selection was made to reduce possible interactions of the phenol red/contaminant with serum proteins while still retaining a significant inhibitory effect. Phenol red concentrations of up to 16 mg/L were added to this medium. This highest level was twice that in standard commercially formulated Gibco-BRL D-MEM/F-12. […] The preparations used in this study ranged in age from newly obtained to more than ten year old laboratory stocks.

H301 cells = assay: Cell growth assay, H301 kidney tumor cells; conditions: for growth effect of steroid hormone, result in words: 50% (v/v) CDE-horse serum
T47D cells = assay: Cell growth assay, T47D human breast cancer cells; conditions: for effect of estrogen in serum-free defined medium without inhibitor: serum-free DDM-2MF ± 10 nM E2; for growth effect of steroid hormone, result in words: 50% (v/v) CDE horse serum, 14 days
CA-PS-Pool II = assay: Scatchard analysis of labeled steroid binding to CA-PS-pool II; design: species or system horse; conditions: 3H-labeled steroid, 34° C.
MCF-7A cells = assay: Cell growth assay, MCF-7A human breast cancer cells; conditions: DDM-2MF with 10 μg/mL apotransferrin in place of deferoxamine
PC3 cells = assay: Cell growth assay, PC3 human prostate cancer cells; conditions: CAPM, 10 μM Fe (III)
ALVA-41 cells = assay: Cell growth assay, ALVA-41 human prostate cancer cells; conditions: results not shown
DU145 cells = assay: Cell growth assay, DU145 human prostate cancer cells; conditions: CAPM, 10 μM Fe (III)
MTW9/PL2 cells = assay: Cell growth assay, MTW9/PL2 rat mammary tumor cells; conditions: for concentration causing significant (p<0.05) growth: 50% (v/v) CDE-horse serum
[8] = target: progesterone receptors in MTW9/PL2 cells (Rattus norvegicus, UniProt Q63449); assay: ^3H-progesterone binding to MTW9/PL2 cells
Sequence of progesterone receptors in MTW9/PL2 cells (Rattus norvegicus, UniProt Q63449) (Q63449 669-923 limits assumed): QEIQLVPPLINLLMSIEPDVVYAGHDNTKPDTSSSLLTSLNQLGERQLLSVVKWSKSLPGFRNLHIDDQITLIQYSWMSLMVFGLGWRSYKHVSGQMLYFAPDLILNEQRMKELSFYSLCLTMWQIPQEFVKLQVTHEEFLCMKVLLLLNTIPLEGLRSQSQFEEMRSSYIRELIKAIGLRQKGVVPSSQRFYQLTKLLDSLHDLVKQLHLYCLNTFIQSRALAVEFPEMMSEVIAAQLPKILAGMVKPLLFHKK

[9] = system: progesterone receptors in MTW9/PL2 cells; assay: ^3H-progesterone binding to MTW9/PL2 cells; design: species or system rat; conditions: 37° C.
[10] = system: androgen receptors of MTW9/PL2 cells
human CBG = human CBG (Homo sapiens, UniProt P08185); conditions: 23° C.; cited from earlier work
Sequence of human CBG (P08185 23-405): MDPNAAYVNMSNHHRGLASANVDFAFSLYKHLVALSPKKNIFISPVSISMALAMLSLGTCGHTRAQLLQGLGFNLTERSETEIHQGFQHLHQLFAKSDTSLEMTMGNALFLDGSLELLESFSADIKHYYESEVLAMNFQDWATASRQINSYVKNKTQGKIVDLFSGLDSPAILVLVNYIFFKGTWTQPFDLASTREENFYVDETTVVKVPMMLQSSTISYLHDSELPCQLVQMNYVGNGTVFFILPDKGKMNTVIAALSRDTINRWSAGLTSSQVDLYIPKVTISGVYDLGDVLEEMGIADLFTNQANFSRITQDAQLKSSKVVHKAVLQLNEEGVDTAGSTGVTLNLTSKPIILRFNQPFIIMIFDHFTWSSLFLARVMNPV

[11] = system: cortisol receptors of MTW9/PL2 cells; assay: ^3H-cortisol binding to MTW9/PL2 cells; conditions: ≦20 nM ^3H-cortisol
[12] = system: GH4C1, GH1 and GH3 rat pituitary tumor cell lines; assay: Thyroid hormone growth effects with GH cell lines in CDE-horse serum; assay type: cell-based
Description: Thyroid Hormone Responsive Pituitary Tumor Cell Growth in CDE-Serum Prepared at 34° C. […] Nonetheless, the 34° C. […] It is known that the thyroid hormone receptor is a member of a superfamily of receptors that also includes the steroid hormone receptors (Evans R M (1988) Science (Wash D.C.) 240:889-895). Testing of substances expected to have thyroid hormone like activity can be performed with the GH cell lines in the presence of low concentrations of CDE-serum.

HT-29 cells = assay: Cell growth assay, HT-29 human colon cancer cells; assay type: cell-based; conditions: CAPM with plasma IgM at 40 μg/mL, increasing concentrations of T3
Excerpt: General Cell Culture—Growth Assay Methods.
General Cell Culture—Harvest and Counting Cells.
General Cell Culture—Quantification of Growth.

[13] = system: MCF-7A, T47D, ZR-75-1, LNCaP and GH4C1 cells; assay: TGFβ1 at 50 ng/mL ± E2 with other ER^+ cell lines; assay type: cell-based
[14] = 3H-labeled steroid, 34° C.; read-out: CA-PS-Pool I Kd
[15] = read-out: Kd of ^3H-E2 specific binding
[16] = read-out: CA-PS-Pool I Kd; 3H-labeled steroid, 34° C.
[17] = D-MEM/F-12 with […] (v/v) CDE-horse serum

C[C@]12CC[C@@H]3c4ccc(O)cc4CC[C@H]3[C@@H]1CC[C@@H]2O [E2, 17β-estradiol]
effect of E2 in serum-free defined medium without inhibitor (MCF-7K cells; serum-free DDM-2MF ± 10 nM E2, 12 days): had no effect on growth rate or saturation density
CA-PS-Pool II Ka [1]: 2.4e+07 M⁻¹
pKd [1]: 7.39
pKd [2, 14]: 4.98
increase in progesterone receptors ([3]; 1.0×10^−8 M): four
increase in progesterone receptor content ([3]; 1.0×10^−12 M): two
effect of E2 in serum-free defined medium without inhibitor (ZR-75-1 cells): no effect
Ka of purified human SHBG (human SHBG): 2.2e+08 M⁻¹
pKd [15]: 7.30 to 7.70
effect of E2 in serum-free defined medium without inhibitor (GH4C1 cells; serum-free PCM-9): had no effect on growth rate or saturation density
pKd [4, 15]: 7.30 to 7.70
Kd for E2, CELL EXTRACTS (ERβ): 0.05 to 0.1 × 10^−9 M
reversal of the inhibition caused by CDE-horse serum (LNCaP cells): reversed the CDE-serum caused inhibition completely
increase in number of progesterone receptors per cell [5]: 1.8 fold and 2.0 fold
pKd ([6]; read-out: Kd for E2, CELL EXTRACTS): 9.06
pKd ([6]; read-out: Kd for E2, Table 5: lowest Kd): 9.06
pKd ([6]; read-out: Kd for E2, WHOLE CELLS): 9.00
growth responses to the natural hormone [7]: 2 to 5 CPD
effect of estrogen in serum-free defined medium without inhibitor (H301 cells; serum-free defined CAPM): had no effect on H301 cell growth
effect of estrogen in serum-free defined medium without inhibitor (T47D cells): 0.5 to 1.0 CPD
effect of estrogen in serum-free defined medium without inhibitor (T47D cells; listed as estrogen): 1.0 CPD
CA-PS-Pool II Ka (CA-PS-Pool II): 3.55e+07 M⁻¹

[Fe+3] [Fe (III)]
concentration completely inhibitory (MCF-7A cells; ± E2, 10 days): 10 µM
pIC50 (MCF-7A cells; read-out: EI50, 10 days): 5.15 to 5.30
reduction in cell number (PC3 cells): 10%
iron sensitivity of growth (ALVA-41 cells): not iron sensitive
reduction in cell number (DU145 cells): 30%
pIC50 (LNCaP cells; CAPM with apotransferrin (500 nM) substituted for deferoxamine, 12-day assay, read-out: EI50 (the source's name)): 5.30
concentration arresting growth to seed density levels (LNCaP cells; CAPM with apotransferrin (500 nM) substituted for deferoxamine, 12-day assay, second experiment in CAPM): 10 µM and 8 to 10 µM
concentration giving complete inhibition (T47D cells; DDM-2MF with 10 μg/mL apotransferrin instead of deferoxamine, 10 days, ± E2): 2 µM
pIC50 (T47D cells; read-out: EI50, DDM-2MF with 10 μg/mL apotransferrin instead of deferoxamine, 10 days): 6.00

CC(=O)[C@H]1CC[C@H]2[C@@H]3CCC4=CC(=O)CC[C@]4(C)[C@H]3CC[C@]12C [progesterone, Progesterone]
CA-PS-Pool II Ka [1]: 140000 M⁻¹
pKd [1]: 5.16
CA-PS-Pool I Ka ([2]; 3H-labeled steroid, 34° C.): 5.9e+08 M⁻¹
pKd [2, 16]: 8.77
concentration causing significant (p<0.05) growth (MTW9/PL2 cells): ≥ 100 nM
growth effect of steroid hormone, result in words (GH4C1 cells): had no effect on GH4C1 growth
pKd [8]: 8.48
^3H-progesterone concentration at one-half saturation [9]: 0.5 to 1 nM
labeled progesterone concentration saturating specific binding [9]: ≥ 5 nM
pKd ([9]; read-out: Kd of ^3H-progesterone binding, Scatchard analysis, whole cells): 8.99
growth effect of steroid hormone, result in words (H301 cells): inactive
growth effect of steroid hormone, result in words (T47D cells): completely ineffective
CA-PS-Pool II Ka (CA-PS-Pool II): 117000 M⁻¹
pKd (CA-PS-Pool II): 5.10

C[C@]12CCC(=O)C[C@@H]1CC[C@@H]1[C@@H]2CC[C@]2(C)[C@@H](O)CC[C@@H]12 [DHT, Dihydrotestosterone]
specific saturable binding sites for androgens [10]: did not reveal saturable specific binding sites
CA-PS-Pool II Ka [1]: 4.1e+07 M⁻¹
pKd [1]: 7.62
CA-PS-Pool I Ka ([2]; 3H-labeled steroid, 34° C.): 164000 M⁻¹
pKd [2, 16]: 5.22
concentration causing significant (p<0.05) growth (MTW9/PL2 cells): ≥ 10 nM
Ka of purified human SHBG (human SHBG): 9.9e+08 M⁻¹
pKd (read-out: Kd of specific binding of ^3H-DHT, Scatchard analysis): 8.30 to 9.00
pKd ([4]; read-out: Kd of specific binding of ^3H-DHT): 7.40 to 7.82
concentration causing significant (p<0.05) growth (LNCaP cells; D-MEM/F-12 with 50% (v/v) CDE horse serum): 1 pM
reversal of the inhibition caused by CDE-horse serum (LNCaP cells): effectively reversed the inhibition
androgenic effect (difference between presence and absence of DHT) (LNCaP cells; serum-free CAPM ± 10 nM DHT): less than one
growth effect of steroid hormone, result in words (H301 cells): inactive
growth effect of steroid hormone, result in words (T47D cells): promoted growth but only at supraphysiological concentrations
CA-PS-Pool II Ka (CA-PS-Pool II): 6.99e+07 M⁻¹
pKd (CA-PS-Pool II): 7.84
CA-PS-Pool II Ka (CA-PS-Pool II; listed as 3H-DHT): 5.88e+07 M⁻¹

C[C@]12CCC(=O)C=C1CC[C@@H]1[C@@H]2[C@@H](O)C[C@@]2(C)[C@H]1CC[C@]2(O)C(=O)CO [cortisol, Hydrocortisone/Cortisol]
Ka for human CBG (human CBG): 5.2e+07 M⁻¹
CA-PS-Pool II Ka [1]: 180000 M⁻¹
pKd [1]: 5.24
CA-PS-Pool I Ka ([2]; 3H-labeled steroid, 34° C.): 1.41e+09 M⁻¹
CA-PS-Pool I Ka ([2]; 3H-labeled steroid, 34° C.; listed as Cortisol): 1.41e+09 M⁻¹
pKd [2, 14]: 9.15
concentration causing significant (p<0.05) growth (MTW9/PL2 cells): > 10000 nM
specific saturable receptors for cortisol [11]: did not identify specific saturable receptors
growth effect of steroid hormone, result in words (GH4C1 cells): had no effect on GH4C1 growth
growth effect of steroid hormone, result in words (H301 cells): inactive
growth effect of steroid hormone, result in words (T47D cells): completely ineffective
CA-PS-Pool II Ka (CA-PS-Pool II): 530000 M⁻¹
pKd (CA-PS-Pool II): 5.72

N[C@@H](Cc1cc(I)c(Oc2ccc(O)c(I)c2)c(I)c1)C(=O)O [T3, 3′, 5-Triiodothyronine]
growth effect, result in words ([12]; 50% (v/v) CDE-horse serum): only supraphysiologic concentrations of thyroid hormone showed growth effects
growth effect, result in words [12, 17]: caused substantial growth
thyroid hormone reversal of the IgM inhibition (HT-29 cells): restored growth

TGFβ1: transforming growth factor β1
substitution for the estrogen reversible inhibitor [13]: did not substitute for the estrogen reversible inhibitor(s) in CDE serum
estrogen reversal of the inhibition (MCF-7K cells; […] (v/v) CDE-horse serum ± E2): no TGFβ1 related estrogenic effect
cell numbers per dish with TGFβ1 (350,000 without) (MCF-7K cells; […] (v/v) CDE-horse serum, 50 ng/mL): 200,000 per dish
cell numbers per dish with TGFβ1 (350,000 without) (MTW9/PL2 cells; [17]): 100,000 per dish
decrease in growth rate (MTW9/PL2 cells; […] (v/v) CDE-horse serum): ≤ 25%
inhibition of growth (MTW9/PL2 cells; […] (v/v) CDE-horse serum): 1.5 CPD
estrogen reversal of the inhibition (MTW9/PL2 cells; […] (v/v) CDE-horse serum ± E2): no estrogen reversal of the TGFβ1 inhibition
